Measurements as given in patent US12052991B2, “Substituted pyridinyloxybenzenes and salts thereof and use thereof as herbicidal agents” (Bayer Aktiengesellschaft, priority 2018, dated 2024).

What was measured:
Assay type in all cases: in vivo
[1] = test system: Echinochloa crus-galli (ECHCG); experiment: Herbicidal post-emergence action (Table B1); conditions: rated visually after about 3 weeks, 100% = plants have died, 0% = like control plants
Description: (§1) Seeds of mono- and dicotyledonous weed plants were placed in plastic pots in sandy loam soil (doubly sown with in each case one species of mono- or dicotyledonous weed plants per pot), covered with soil and cultivated in a greenhouse under controlled growth conditions. 2 to 3 weeks after sowing, the test plants were treated at the one-leaf stage. The compounds of the invention, formulated in the form of wettable powders (WP) or as emulsion concentrates (EC), were applied onto the green parts of the plants as aqueous suspension or emulsion with addition of 0.5% additive at a water application rate of 600 liters per hectare (converted). After the test plants had been kept in the greenhouse under optimum growth conditions for about 3 weeks, the activity of the preparations was rated visually in comparison to untreated controls. For example, 100% activity=the plants have died, 0% activity=like control plants. Tables B1 to B12 below show the effects of selected compounds of the general formula (I) according to Table 1 on various harmful plants and an application rate corresponding to 1280 or 320 g/ha, which were obtained by the experimental procedure mentioned above.

Poa annua (POAAN) [2] = experiment: Herbicidal post-emergence action (Table B3); conditions: rated visually after about 3 weeks, 100% = plants have died, 0% = like control plants
Summary of the method: (§2)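 Greenhouse pot-grown weeds in sandy loam, sprayed at the one-leaf stage (2–3 weeks post-sowing) with WP or EC formulations plus 0.5% additive at 600 l/ha water, at 1280 or 320 g/ha. Visual % activity versus untreated controls rated about 3 weeks later (100% = dead).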

[3] = test system: Abutilon theophrasti (ABUTH); experiment: Herbicidal post-emergence action (Table B5); conditions: rated visually after about 3 weeks, 100% = plants have died, 0% = like control plants
Summary of the method: as §2

[4] = test system: Amaranthus retroflexus (AMARE); experiment: Herbicidal post-emergence action (Table B6); conditions: dosage 1280 g/ha; visual rating about 3 weeks after treatment; 100% = plants have died, 0% = like control plants
Summary of the method: as §2

Stellaria media (STEME) [5] = experiment: Herbicidal post-emergence action (Table B8); conditions: visual rating about 3 weeks after treatment, 100% = plants have died, 0% = like control plants
Summary of the method: as §2

[6] = test system: Alopecurus myosuroides (ALOMY); experiment: Herbicidal post-emergence action (Table B9); conditions: rated visually after about 3 weeks, 100% = plants have died, 0% = like control plants
Description: as §1

[7] = test system: Digitaria sanguinalis (DIGSA); experiment: Herbicidal post-emergence action (Table B10); conditions: dosage 1280 g/ha; visual rating about 3 weeks after treatment; 100% = plants have died, 0% = like control plants
Description: as §1

Bassia scoparia (KCHSC) = experiment: Herbicidal post-emergence action (Table B11); conditions: visual rating about 3 weeks after treatment, 100% = plants have died, 0% = like control plants
Description: as §1

Veronica persica (VERPE) [8] = experiment: Herbicidal post-emergence action (Table B12); conditions: visual rating about 3 weeks after treatment, 100% = plants have died, 0% = like control plants
Summary of the method: as §2

Poa annua (POAAN) [9] = experiment: Herbicidal pre-emergence action, test C (Table C3); conditions: visual scoring after about 3 weeks, 100% = plants have died, 0% = like control plants
Summary of the method: (§3)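 % herbicidal effect, visual, vs untreated; 0% = as control, 100% = plants dead. Scored ~3 wk post-application. Rate 1280 or 320 g/ha onto covering soil pre-emergence.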

Setaria viridis (SETVI) = experiment: Herbicidal pre-emergence action, test C (Table C4); conditions: dosage 1280 g/ha; visual scoring after about 3 weeks; 100% = plants have died, 0% = like control plants
Summary of the method: as §3

[10] = test system: Abutilon theophrasti (ABUTH); experiment: Herbicidal pre-emergence action, test C (Table C5); conditions: dosage 1280 g/ha; visual scoring after about 3 weeks; 100% = plants have died, 0% = like control plants
Summary of the method: as §3

[11] = test system: Matricaria inodora (MATIN); experiment: Herbicidal pre-emergence action, test C (Table C7); conditions: dosage 1280 g/ha; visual scoring after about 3 weeks; 100% = plants have died, 0% = like control plants
Summary of the method: as §3

Stellaria media (STEME) [12] = experiment: Herbicidal pre-emergence action, test C (Table C8); conditions: visual scoring after about 3 weeks, 100% = plants have died, 0% = like control plants
Summary of the method: as §3

[13] = test system: Alopecurus myosuroides (ALOMY); experiment: Herbicidal pre-emergence action, test C (Table C9); conditions: dosage 1280 g/ha; visual scoring after about 3 weeks; 100% = plants have died, 0% = like control plants
Text: (§4) Seeds of mono- and dicotyledonous weed plants were placed in plastic pots in sandy loam soil (doubly sown with one species each of mono- or dicotyledonous weed plants per pot) and covered with soil. The compounds of the invention, formulated in the form of wettable powders (WP) or as emulsion concentrates (EC), were then applied onto the surface of the covering soil as aqueous suspension or emulsion with addition of 0.5% additive at a water application rate of 600 liters per hectare (converted). After the treatment, the pots were placed in a greenhouse and kept under good growth conditions for the test plants. After about 3 weeks, the effect of the preparations was scored visually in comparison with untreated controls as percentages. For example, 100% activity=the plants have died, 0% activity=like control plants. Tables C1 to C12 below show the effects of selected compounds of the general formula (I) according to Table 1 on various harmful plants and an application rate corresponding to 1280 or 320 g/ha, which were obtained by the experimental procedure mentioned above.

[14] = test system: Digitaria sanguinalis (DIGSA); experiment: Herbicidal pre-emergence action, test C (Table C10); conditions: dosage 1280 g/ha; visual scoring after about 3 weeks; 100% = plants have died, 0% = like control plants
Text: as §4

Veronica persica (VERPE) [15] = experiment: Herbicidal pre-emergence action, test C (Table C12); conditions: visual scoring vs untreated controls
Summary of the method: as §3

[16] = test system: harmful plants ABUTH, AMARE, ECHCG, LOLRI, MATIN, POAAN, SETVI, STEME, ALOMY, DIGSA, KCHSC and VERPE; experiment: Herbicidal post-emergence action, summary of Tables B1-B12; conditions: application rate of 1280 or 320 g of active ingredient per hectare; summary in words
Summary of the method: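 Greenhouse weeds in sandy loam treated post-emergence at the one-leaf stage, 2–3 weeks after sowing, with WP or EC formulations sprayed with 0.5% additive at 600 L/ha water, 1280 or 320 g/ha. Damage rated visually after about 3 weeks versus untreated controls (0% = like control, 100% = dead).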

[17] = test system: harmful plants ABUTH, AMARE, ECHCG, LOLRI, MATIN, POAAN, SETVI, STEME, ALOMY, DIGSA, KCHSC and VERPE; experiment: Herbicidal pre-emergence action (test C), summary of Tables C1-C12; conditions: application rate of 1280 or 320 g of active ingredient per hectare; summary in words
Summary of the method: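 Pre-emergence pot test in sandy loam: WP or EC formulations were sprayed onto the covering soil with 0.5% additive at 600 L/ha water, at 1280 or 320 g/ha. Plants were kept in the greenhouse, and activity was rated visually about 3 weeks later as % versus untreated controls (100% = dead).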

[18] = test system: Amaranthus retroflexus (AMARE); experiment: Herbicidal pre-emergence action, test C (Table C6); conditions: visual scoring after about 3 weeks, 100% = plants have died, 0% = like control plants
Summary of the method: as §3

Compound | Post-emergence action against Poa annua (POAAN) (Poa annua (POAAN) [2]; 320 g/ha) [%] | Post-emergence action against Poa annua (POAAN) (Poa annua (POAAN) [2]; 1280 g/ha) [%] | Post-emergence action against Abutilon theophrasti (ABUTH) ([3]; 1280 g/ha) [%] | Post-emergence action against Amaranthus retroflexus (AMARE) [4] [%] | Post-emergence action against Stellaria media (STEME) (Stellaria media (STEME) [5]; dosage 1280 g/ha) [%] | Post-emergence action against Digitaria sanguinalis (DIGSA) [7] [%] | Post-emergence action against Veronica persica (VERPE) (Veronica persica (VERPE) [8]; dosage 1280 g/ha) [%] | Pre-emergence action against Poa annua (POAAN) (Poa annua (POAAN) [9]; dosage 1280 g/ha) [%] | Pre-emergence action against Setaria viridis (SETVI) (Setaria viridis (SETVI)) [%] | Pre-emergence action against Stellaria media (STEME) (Stellaria media (STEME) [12]; dosage 320 g/ha) [%] | Pre-emergence action against Stellaria media (STEME) (Stellaria media (STEME) [12]; dosage 1280 g/ha) [%] | Pre-emergence action against Alopecurus myosuroides (ALOMY) [13] [%] | Pre-emergence action against Digitaria sanguinalis (DIGSA) [14] [%] | Pre-emergence action against Veronica persica (VERPE) (Veronica persica (VERPE) [15]; dosage 1280 g/ha) [%] | herbicidal activity against the harmful plants of Tables B1-B12 in post-emergence treatment [16] | herbicidal activity against the harmful plants of Tables C1-C12 in pre-emergence treatment [17] | other results
Cc1ccc(-c2cc(C(F)F)no2)c(Oc2ccc(Cl)cn2)c1 [Example 1-26] | 100 | 100 | 100 | 100 | 100 | 90 | 100 | 100 | 90 | 100 | 100 | 90 | 90 | 90 | very good herbicidal activity | very good herbicidal activity | Post-emergence action against Echinochloa crus-galli (ECHCG) ([1]; 320 g/ha): 100%; Post-emergence action against Echinochloa crus-galli (ECHCG) ([1]; 1280 g/ha): 100%; Post-emergence action against Abutilon theophrasti (ABUTH) ([3]; 320 g/ha): 90%; Post-emergence action against Alopecurus myosuroides (ALOMY) ([6]; 320 g/ha): 100%; Post-emergence action against Alopecurus myosuroides (ALOMY) ([6]; 1280 g/ha): 100%; Post-emergence action against Bassia scoparia (KCHSC) (Bassia scoparia (KCHSC); dosage 320 g/ha): 90%; Post-emergence action against Bassia scoparia (KCHSC) (Bassia scoparia (KCHSC); dosage 1280 g/ha): 100%; Pre-emergence action against Poa annua (POAAN) (Poa annua (POAAN) [9]; dosage 320 g/ha): 90%; Pre-emergence action against Abutilon theophrasti (ABUTH) [10]: 90%; Pre-emergence action against Matricaria inodora (MATIN) [11]: 100%
FC(F)c1cc(-c2c(Oc3ccc(Cl)cn3)cccc2C2CC2)on1 [Example 1-77] | 100 | 100 | 90 | 100 | 100 | 100 | 100 | 100 | 100 | 100 | 100 | 100 | 100 | 100 | very good herbicidal activity | very good herbicidal activity | Post-emergence action against Stellaria media (STEME) (Stellaria media (STEME) [5]; dosage 320 g/ha): 100%; Post-emergence action against Veronica persica (VERPE) (Veronica persica (VERPE) [8]; dosage 320 g/ha): 100%; Pre-emergence action against Amaranthus retroflexus (AMARE) ([18]; dosage 320 g/ha): 90%; Pre-emergence action against Amaranthus retroflexus (AMARE) ([18]; dosage 1280 g/ha): 100%; Pre-emergence action against Veronica persica (VERPE) (Veronica persica (VERPE) [15]; dosage 320 g/ha): 90%
